Measurements reported in patent publication US9237996B2, “Glucosyltransferase inhibitor containing epigallocatechin gallate polymer as active ingredient” (priority 2008, dated 2016).

How the values were obtained:
[1] = test system: glucosyltransferase (GTF); experiment: Overall GTF inhibitory activity, conclusion from the rGTFB and rGTFC tests; format: biochemical, Streptococcus mutans; settings: summary of Examples 3 and 4, GTFB and GTFC
Protocol: (§1) With 2 mL of 0.1M KPB (pH6.0) containing 1% sucrose-containing 0.1% dextran T10, rGTFB or rGTFC (amount corresponding to 15 mU (average value)) obtained in Example 2, and each of the above samples (final concentration: 0.1 mg/mL) were mixed. The mixture was incubated at 37° C. overnight. The turbidity (550 nm) of the resultant reaction solution was measured to obtain the yield of glucan insoluble in water. The lower yield of the glucan insoluble in water (in other words, turbidity is low) means that the activity of glucosyltransferase is more inhibited. Note that the control (cont) shown in the figures represents turbidity in the absence of the aforementioned samples.
as §1, with “1% sucrose and” for “1% sucrose-containing”, “Example 2” for “Example 2,”, “concentration: 0.05” for “concentration: 0.1”

[2] = target: T1, glucosyltransferase C (GTFC) (Streptococcus mutans serotype c, UniProt P13470); experiment: Glucosyltransferase inhibitory activity, turbidity (550 nm) of water-insoluble glucan, rGTFC; format: biochemical; settings: 37° C. overnight
T1 construct: made in house; host or cells: Escherichia coli XL-2 harboring a plasmid (printed as pSK6)
T1 sequence (P13470 35-1455): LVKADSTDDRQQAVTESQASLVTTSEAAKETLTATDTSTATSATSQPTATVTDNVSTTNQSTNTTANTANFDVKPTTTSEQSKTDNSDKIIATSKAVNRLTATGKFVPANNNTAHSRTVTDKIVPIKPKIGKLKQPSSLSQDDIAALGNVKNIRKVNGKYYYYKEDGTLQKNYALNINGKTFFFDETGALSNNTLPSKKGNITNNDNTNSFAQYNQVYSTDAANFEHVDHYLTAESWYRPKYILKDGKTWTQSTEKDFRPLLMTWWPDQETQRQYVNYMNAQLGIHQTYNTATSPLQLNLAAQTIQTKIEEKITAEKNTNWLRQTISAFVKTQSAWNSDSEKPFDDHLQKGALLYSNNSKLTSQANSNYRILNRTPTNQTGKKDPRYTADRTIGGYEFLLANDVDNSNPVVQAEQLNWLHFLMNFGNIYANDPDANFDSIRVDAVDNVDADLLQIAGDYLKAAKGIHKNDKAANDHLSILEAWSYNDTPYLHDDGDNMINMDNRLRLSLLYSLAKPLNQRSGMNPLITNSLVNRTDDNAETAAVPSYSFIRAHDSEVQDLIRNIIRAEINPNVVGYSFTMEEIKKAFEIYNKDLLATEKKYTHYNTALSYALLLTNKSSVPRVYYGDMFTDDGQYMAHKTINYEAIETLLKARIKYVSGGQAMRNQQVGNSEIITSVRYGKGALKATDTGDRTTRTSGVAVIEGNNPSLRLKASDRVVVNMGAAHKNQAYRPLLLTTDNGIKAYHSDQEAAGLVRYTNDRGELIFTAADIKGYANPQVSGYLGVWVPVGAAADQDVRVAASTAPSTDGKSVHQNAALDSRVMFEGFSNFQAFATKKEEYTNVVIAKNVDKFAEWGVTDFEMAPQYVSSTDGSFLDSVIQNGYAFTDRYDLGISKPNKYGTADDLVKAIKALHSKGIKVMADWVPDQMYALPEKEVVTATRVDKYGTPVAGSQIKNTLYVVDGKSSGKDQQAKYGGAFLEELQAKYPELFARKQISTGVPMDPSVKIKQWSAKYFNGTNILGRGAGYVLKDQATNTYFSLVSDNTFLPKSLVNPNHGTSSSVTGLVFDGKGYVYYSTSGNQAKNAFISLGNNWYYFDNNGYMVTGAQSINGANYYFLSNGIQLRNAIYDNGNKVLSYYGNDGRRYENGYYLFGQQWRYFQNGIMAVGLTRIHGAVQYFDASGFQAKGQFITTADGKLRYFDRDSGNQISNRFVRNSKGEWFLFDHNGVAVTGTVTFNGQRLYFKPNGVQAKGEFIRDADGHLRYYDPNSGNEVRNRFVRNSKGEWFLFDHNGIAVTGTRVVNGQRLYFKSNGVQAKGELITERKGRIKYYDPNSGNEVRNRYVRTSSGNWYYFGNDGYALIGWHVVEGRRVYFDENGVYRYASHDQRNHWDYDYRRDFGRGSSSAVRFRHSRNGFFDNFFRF
Protocol: (§2) The glucosyltransferase inhibitory activity can be measured by using any one of the evaluation methods described in prior-art literatures set forth in Background Art. For example, glucosyltransferase prepared from Streptococcus mutans etc. is added to an aqueous solution containing sucrose, and incubated at about the same temperature (about 37° C.) as in the oral cavity for less than 24 hours, preferably about 16 to 20 hours to enzymatically produce glucan from sucrose. Since glucan is insoluble in water, the turbidity of the resultant reaction solution (for example, turbidity at a wavelength of 550 nm) is measured. In this manner, the yield of glucan can be evaluated. If the yield of glucan low (in other words, turbidity is low), it is said that glucosyltransferase activity is more inhibited than that of the case where the yield of glucan is large (in other words, turbidity is high).
Similarly, recombinant glucosyltransferase C (rGTFC) was prepared by using Escherichia coli XL-2 strain harboring a plasmid pSK6 having a gene encoding glucosyltransferase C (GTFC) of Streptococcus mutans and put in use in later experiments.
The rGTFB having a specific activity of 503 mU/mg protein and the rGTFC having a specific activity of 6.3 to 22.3 mU/mg protein were used as a mixture. The activity 1U represents activity of an enzyme in converting glucose ([…]) derived from sucrose into glucan per minute. Protein was quantified by using the bicinchonine acid method (BCA method) (BCA protein assay kit, manufactured by PIERCE).
as §1
as §1, with “1% sucrose and” for “1% sucrose-containing”, “Example 2” for “Example 2,”, “concentration: 0.05” for “concentration: 0.1”, “inhibited. […]” for “inhibited. Note that the control (cont) shown in the figures represents turbidity in the absence of the aforementioned samples.”

[3] = target: T2, glucosyltransferase B (GTFB) (Streptococcus mutans serotype c, UniProt P08987); experiment: Glucosyltransferase inhibitory activity, turbidity (550 nm) of water-insoluble glucan, rGTFB; format: biochemical; settings: 37° C. overnight
T2 construct: made in house; host or cells: Escherichia coli XL-2 harboring plasmid pSK6
T2 sequence (P08987 35-1476): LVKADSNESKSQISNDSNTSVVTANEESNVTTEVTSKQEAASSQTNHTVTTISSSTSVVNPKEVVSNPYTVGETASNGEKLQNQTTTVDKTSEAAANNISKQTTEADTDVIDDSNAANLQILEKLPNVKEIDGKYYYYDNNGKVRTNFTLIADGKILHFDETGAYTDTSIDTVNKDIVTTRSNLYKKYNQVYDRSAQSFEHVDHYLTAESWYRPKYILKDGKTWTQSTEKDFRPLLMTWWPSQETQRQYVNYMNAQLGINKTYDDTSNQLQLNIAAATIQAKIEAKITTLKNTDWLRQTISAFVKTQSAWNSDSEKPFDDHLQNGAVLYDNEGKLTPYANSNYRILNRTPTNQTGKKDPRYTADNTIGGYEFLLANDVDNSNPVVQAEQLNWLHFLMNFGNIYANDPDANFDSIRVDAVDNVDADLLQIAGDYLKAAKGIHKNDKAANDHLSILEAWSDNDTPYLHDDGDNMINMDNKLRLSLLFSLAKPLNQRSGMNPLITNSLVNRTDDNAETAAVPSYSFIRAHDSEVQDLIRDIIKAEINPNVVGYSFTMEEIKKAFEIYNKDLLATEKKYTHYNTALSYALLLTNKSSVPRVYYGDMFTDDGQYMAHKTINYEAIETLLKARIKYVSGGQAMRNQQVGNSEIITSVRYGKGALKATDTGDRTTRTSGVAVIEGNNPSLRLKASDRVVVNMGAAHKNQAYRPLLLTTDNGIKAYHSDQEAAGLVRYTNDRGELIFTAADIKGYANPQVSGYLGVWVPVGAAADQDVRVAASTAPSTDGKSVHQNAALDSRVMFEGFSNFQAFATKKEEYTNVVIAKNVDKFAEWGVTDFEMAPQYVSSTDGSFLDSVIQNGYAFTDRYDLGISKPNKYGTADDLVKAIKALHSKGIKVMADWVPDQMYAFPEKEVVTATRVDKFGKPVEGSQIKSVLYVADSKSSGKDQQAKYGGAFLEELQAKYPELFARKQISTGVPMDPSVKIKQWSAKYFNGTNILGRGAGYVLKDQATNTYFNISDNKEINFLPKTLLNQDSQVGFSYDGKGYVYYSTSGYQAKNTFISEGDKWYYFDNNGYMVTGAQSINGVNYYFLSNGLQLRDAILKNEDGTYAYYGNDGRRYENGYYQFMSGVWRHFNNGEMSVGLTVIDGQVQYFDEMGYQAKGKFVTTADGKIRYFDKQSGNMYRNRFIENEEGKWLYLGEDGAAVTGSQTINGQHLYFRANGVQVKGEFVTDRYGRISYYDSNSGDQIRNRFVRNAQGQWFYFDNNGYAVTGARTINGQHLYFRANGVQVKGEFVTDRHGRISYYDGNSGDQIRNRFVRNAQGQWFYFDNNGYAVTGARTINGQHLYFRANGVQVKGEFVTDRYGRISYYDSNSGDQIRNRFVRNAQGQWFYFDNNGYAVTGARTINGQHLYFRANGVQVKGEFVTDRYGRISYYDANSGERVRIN
Protocol: as §2
rGTF was prepared by the method described in the paper of M. matsumoto et al, FEMS Microbiology Letters 228 (2003) 73-80. More specifically, Escherichia coli XL-2 strain harboring a plasmid pSK6 having a gene encoding glucosyltransferase B (GTFB) of Streptococcus mutans was subjected to shaking culture performed in Luria Bertani liquid medium containing ampicillin (100 μg/mL) and tetracycline (7.5 μg/mL) at 37° C. for 16 hours. Bacterial cells were collected by centrifugally separating the medium, suspended in a 10 mM phosphate buffer (pH 6.5) previously cooled and crushed by an ultrasonic generator (UD201 type, manufactured by Tomy Seiko Co., Ltd., Tokyo) under ice cooling. After crushed, precipitates were centrifugally removed at 12,000×g for 30 minutes. The resultant supernatant was used as glucosyltransferase B (rGTFB) and put in use in later experiments.
The rGTFB having a specific activity of 503 mU/mg protein and the rGTFC having a specific activity of 6.3 to 22.3 mU/mg protein were used as a mixture. […] Protein was quantified by using the bicinchonine acid method (BCA method) (BCA protein assay kit, manufactured by PIERCE).
(§3) With 2 mL of 0.1M KPB (pH6.0) containing 1% sucrose-containing 0.1% dextran T10, rGTFB or rGTFC (amount corresponding to 15 mU (average value)) obtained in Example 2, and each of the above samples (final concentration: 0.1 mg/mL) were mixed. […] The turbidity (550 nm) of the resultant reaction solution was measured to obtain the yield of glucan insoluble in water. […]
as §3, with “1% sucrose and” for “1% sucrose-containing”, “Example 2” for “Example 2,”, “concentration: 0.05” for “concentration: 0.1”

[4] = sample final concentration 0.1 mg/mL, FIG. 8
[5] = sample final concentration 0.1 mg/mL, FIG. 7

Row | SMILES | GTF inhibitory activity (overall) [1] | effect on the activity of GTFC (yield of water-insoluble glucan, turbidity) [2, 4] | effect on the activity of GTFB (yield of water-insoluble glucan, turbidity) [3, 5] | effect on the activity of GTFC (yield of water-insoluble glucan, turbidity) ([2]; sample final concentration 0.05 mg/mL, FIG. 10) | effect on the activity of GTFB (yield of water-insoluble glucan, turbidity) ([3]; sample final concentration 0.05 mg/mL, FIG. 9)
1 | O=C(O[C@@H]1Cc2c(cc(O)c(Cc3c(O)cc(O)c4c3O[C@H](c3cc(O)c(O)c(O)c3)[C@H](OC(=O)c3cc(O)c(O)c(O)c3)C4)c2O)O[C@@H]1c1cc(O)c(O)c(O)c1)c1cc(O)c(O)c(O)c1 [OHBF-B, oolong homobisflavan-B] | high | inhibit | inhibit |  | 
2 | O=C(O[C@@H]1Cc2c(O)cc(O)c(Cc3c(O)cc(O)c4c3O[C@H](c3cc(O)c(O)c(O)c3)[C@H](OC(=O)c3cc(O)c(O)c(O)c3)C4)c2O[C@@H]1c1cc(O)c(O)c(O)c1)c1cc(O)c(O)c(O)c1 [OHBF-A, oolong homobisflavan-A] |  | slightly enhances | inhibits |  | 
3 | O=C(O[C@@H]1Cc2c(O)cc(O)cc2O[C@@H]1c1cc(O)c(O)c(O)c1-c1c([C@H]2Oc3cc(O)cc(O)c3C[C@H]2OC(=O)c2cc(O)c(O)c(O)c2)cc(O)c(O)c1O)c1cc(O)c(O)c(O)c1 [TSN-A, theasinensin A, reference compound] |  | extremely enhances | substantially no effect |  | 
4 | O=C(O[C@@H]1Cc2c(O)cc(O)c(Cc3c(O)c(Cc4c(O)c(Cc5c(O)cc(O)c6c5O[C@H](c5cc(O)c(O)c(O)c5)[C@H](OC(=O)c5cc(O)c(O)c(O)c5)C6)c(O)c5c4O[C@H](c4cc(O)c(O)c(O)c4)[C@H](OC(=O)c4cc(O)c(O)c(O)c4)C5)c4c(c3O)C[C@@H](OC(=O)c3cc(O)c(O)c(O)c3)[C@@H](c3cc(O)c(O)c(O)c3)O4)c2O[C@@H]1c1cc(O)c(O)c(O)c1)c1cc(O)c(O)c(O)c1 [OHBF-Tet-2, oolong homobisflavan-tetramer-2] |  |  |  | slightly inhibited | significant inhibitory effect on GTFB was not confirmed
